Test results published in patent publication US6649201B2, “Eggshell derived monocalcium and dicalcium phosphate” (Board of Regents of University of Nebraska, priority 2001, dated 2003).

Assay: 21-day starter chick feeding study: relative bioavailability of phosphate sources (slope ratio assay)
Conditions: in vivo
Source text: (CDP) source in starter chick diets. […] Each dietary treatment was replicated six times with eleven chicks per pen during a 21-day experimental period. […] A slope ratio assay using linear regression analysis was used to determine relative bioavailabilities.

## eggshell derived monocalcium phosphate [EDMCP]
  availability of the phosphate fraction to the animal vs currently available commercial products: more available
